Source: ChEMBL document CHEMBL5465560, “Selectivity Literature for EUbOPEN Chemogenomic Library” (2024)
One block for each molecule: values may come before it.

Assays:
[1] = molecular target: T1, NUAK family SNF1-like kinase 1 (Homo sapiens) (UniProt O60285); test: Selectivity interaction (Ambit KINOMEscan and KiNATiv profiling in Jurkat cells) EUB0000090b NUAK1; assay type: cell-based; settings: at 1 µM
T1 sequence (whole entry): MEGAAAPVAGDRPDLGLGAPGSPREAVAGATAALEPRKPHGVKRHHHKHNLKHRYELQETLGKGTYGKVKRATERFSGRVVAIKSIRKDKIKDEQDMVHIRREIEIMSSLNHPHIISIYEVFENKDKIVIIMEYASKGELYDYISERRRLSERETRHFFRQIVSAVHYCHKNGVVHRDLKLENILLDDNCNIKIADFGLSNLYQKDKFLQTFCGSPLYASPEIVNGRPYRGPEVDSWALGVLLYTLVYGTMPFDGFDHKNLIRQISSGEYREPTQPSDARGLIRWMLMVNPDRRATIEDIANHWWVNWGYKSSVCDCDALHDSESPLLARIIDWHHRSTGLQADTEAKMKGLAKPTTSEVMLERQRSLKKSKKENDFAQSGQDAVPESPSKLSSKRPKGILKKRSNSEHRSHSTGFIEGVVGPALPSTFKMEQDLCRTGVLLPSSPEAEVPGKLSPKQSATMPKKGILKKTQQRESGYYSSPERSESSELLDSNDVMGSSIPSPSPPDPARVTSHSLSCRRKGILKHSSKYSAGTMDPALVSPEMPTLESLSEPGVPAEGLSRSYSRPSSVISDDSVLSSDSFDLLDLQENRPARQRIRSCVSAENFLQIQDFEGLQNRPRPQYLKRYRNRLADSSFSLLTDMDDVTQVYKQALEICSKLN

[2] = Selectivity interaction (KinomeScan (DiscoverX)) EUB0000655a CDK2H; settings: at 10 µM
[3] = molecular target: T2, Serine/threonine-protein kinase RIO1 (Homo sapiens) (UniProt Q9BRS2); test: Selectivity interaction (KinomeScan (DiscoverX)) EUB0000618a RIOK1; settings: at 10 µM
T2 sequence (whole entry): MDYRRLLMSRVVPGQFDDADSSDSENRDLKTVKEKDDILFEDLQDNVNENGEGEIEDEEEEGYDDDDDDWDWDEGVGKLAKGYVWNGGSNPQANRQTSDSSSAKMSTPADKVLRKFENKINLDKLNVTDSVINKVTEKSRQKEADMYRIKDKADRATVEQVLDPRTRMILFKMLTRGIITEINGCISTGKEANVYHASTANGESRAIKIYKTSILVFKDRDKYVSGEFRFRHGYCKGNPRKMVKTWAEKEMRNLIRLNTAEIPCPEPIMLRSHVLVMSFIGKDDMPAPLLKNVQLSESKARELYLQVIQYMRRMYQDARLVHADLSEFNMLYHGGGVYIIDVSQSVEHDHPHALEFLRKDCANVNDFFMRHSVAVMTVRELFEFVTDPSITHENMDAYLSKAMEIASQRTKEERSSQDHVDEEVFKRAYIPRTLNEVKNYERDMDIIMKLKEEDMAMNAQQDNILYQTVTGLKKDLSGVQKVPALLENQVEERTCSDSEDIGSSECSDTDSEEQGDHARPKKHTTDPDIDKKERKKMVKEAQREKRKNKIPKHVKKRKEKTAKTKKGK

[4] = molecular target: Serine/threonine-protein kinase 26 (Homo sapiens, UniProt Q9P289); test: Selectivity interaction (KinomeScan (DiscoverX)) EUB0000607a STK26; settings: at 10 µM
[5] = molecular target: Phosphorylase b kinase gamma catalytic chain, skeletal muscle/heart isoform (Homo sapiens) (UniProt Q16816); test: Selectivity interaction (KinomeScan (DiscoverX)) EUB0001619a PHKG1; settings: at 1 µM
[6] = molecular target: Phosphatidylinositol 4-phosphate 3-kinase C2 domain-containing subunit beta (Homo sapiens) (UniProt O00750); test: Selectivity interaction (KinomeScan (DiscoverX)) EUB0000595a PIK3C2B; settings: at 10 µM
[7] = molecular target: T3, Interleukin-1 receptor-associated kinase 3 (Homo sapiens) (UniProt Q9Y616); test: Selectivity interaction (KinomeScan (DiscoverX)) EUB0000595a IRAK3; settings: at 10 µM
T3 sequence (whole entry): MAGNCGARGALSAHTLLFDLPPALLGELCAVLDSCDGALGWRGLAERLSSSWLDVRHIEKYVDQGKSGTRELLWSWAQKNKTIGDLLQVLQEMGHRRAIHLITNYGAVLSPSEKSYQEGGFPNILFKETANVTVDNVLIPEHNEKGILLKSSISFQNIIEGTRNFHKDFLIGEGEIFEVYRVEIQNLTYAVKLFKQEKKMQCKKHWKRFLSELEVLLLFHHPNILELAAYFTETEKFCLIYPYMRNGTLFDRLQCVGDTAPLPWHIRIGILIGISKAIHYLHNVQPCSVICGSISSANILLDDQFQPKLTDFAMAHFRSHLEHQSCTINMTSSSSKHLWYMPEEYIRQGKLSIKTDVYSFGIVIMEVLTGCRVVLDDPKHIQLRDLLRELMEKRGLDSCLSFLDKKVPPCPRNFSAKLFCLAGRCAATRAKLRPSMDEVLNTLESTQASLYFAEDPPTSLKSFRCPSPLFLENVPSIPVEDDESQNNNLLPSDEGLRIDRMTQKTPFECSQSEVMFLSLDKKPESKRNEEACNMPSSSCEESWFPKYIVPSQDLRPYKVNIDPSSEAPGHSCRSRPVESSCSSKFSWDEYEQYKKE

[8] = molecular target: Tyrosine-protein kinase CSK (Homo sapiens) (UniProt P41240); settings: at 10 µM
[9] = molecular target: Tyrosine-protein kinase Fes/Fps (Homo sapiens) (UniProt P07332); test: Selectivity interaction (KinomeScan (DiscoverX)) EUB0000595a FES; settings: at 10 µM
[10] = molecular target: Serine/threonine-protein kinase PAK 3 (Homo sapiens) (UniProt O75914); test: Selectivity interaction (Upstate Kinase Profiler service (Millipore)) EUB0000056c PAK3; settings: at 1 µM
[11] = molecular target: N-lysine methyltransferase SMYD2 (Homo sapiens) (UniProt Q9NRG4); settings: at 1 µM
[12] = molecular target: DNA mismatch repair protein Msh6 (Homo sapiens) (UniProt P52701); test: Selectivity interaction (PWWP, WD40, and Tudor domain panel (DSLS measurements, literature)) EUB0000270b MSH6
[13] = molecular target: Lethal(3)malignant brain tumor-like protein 3 (Homo sapiens) (UniProt Q96JM7); test: Selectivity interaction (PWWP, WD40, and Tudor domain panel (DSLS measurements, literature)) EUB0000270b L3MBTL3
[14] = molecular target: Dual specificity protein kinase CLK4 (Homo sapiens, UniProt Q9HAZ1); test: Selectivity interaction (KinomeScan (DiscoverX)) EUB0001049a CLK4; settings: at 1 µM
[15] = molecular target: Ribosomal protein S6 kinase alpha-6 (Homo sapiens, UniProt Q9UK32); test: Selectivity interaction (KinomeScan (DiscoverX)) EUB0000666a RPS6KA6; settings: at 10 µM
[16] = molecular target: Cyclin-dependent kinase 2 (Homo sapiens, UniProt P24941); test: Selectivity interaction (KinomeScan (DiscoverX)) EUB0000092b CDK2; settings: at 10 µM
[17] = molecular target: Phosphatidylinositol 4-phosphate 3-kinase C2 domain-containing subunit alpha (Homo sapiens) (UniProt O00443); test: Selectivity interaction (Adapta Assay) EUB0001632a PIK3C2A; settings: at 10 µM
Sequence of Phosphatidylinositol 4-phosphate 3-kinase C2 domain-containing subunit alpha (Homo sapiens) (O00443 whole entry, the tested form may be a part): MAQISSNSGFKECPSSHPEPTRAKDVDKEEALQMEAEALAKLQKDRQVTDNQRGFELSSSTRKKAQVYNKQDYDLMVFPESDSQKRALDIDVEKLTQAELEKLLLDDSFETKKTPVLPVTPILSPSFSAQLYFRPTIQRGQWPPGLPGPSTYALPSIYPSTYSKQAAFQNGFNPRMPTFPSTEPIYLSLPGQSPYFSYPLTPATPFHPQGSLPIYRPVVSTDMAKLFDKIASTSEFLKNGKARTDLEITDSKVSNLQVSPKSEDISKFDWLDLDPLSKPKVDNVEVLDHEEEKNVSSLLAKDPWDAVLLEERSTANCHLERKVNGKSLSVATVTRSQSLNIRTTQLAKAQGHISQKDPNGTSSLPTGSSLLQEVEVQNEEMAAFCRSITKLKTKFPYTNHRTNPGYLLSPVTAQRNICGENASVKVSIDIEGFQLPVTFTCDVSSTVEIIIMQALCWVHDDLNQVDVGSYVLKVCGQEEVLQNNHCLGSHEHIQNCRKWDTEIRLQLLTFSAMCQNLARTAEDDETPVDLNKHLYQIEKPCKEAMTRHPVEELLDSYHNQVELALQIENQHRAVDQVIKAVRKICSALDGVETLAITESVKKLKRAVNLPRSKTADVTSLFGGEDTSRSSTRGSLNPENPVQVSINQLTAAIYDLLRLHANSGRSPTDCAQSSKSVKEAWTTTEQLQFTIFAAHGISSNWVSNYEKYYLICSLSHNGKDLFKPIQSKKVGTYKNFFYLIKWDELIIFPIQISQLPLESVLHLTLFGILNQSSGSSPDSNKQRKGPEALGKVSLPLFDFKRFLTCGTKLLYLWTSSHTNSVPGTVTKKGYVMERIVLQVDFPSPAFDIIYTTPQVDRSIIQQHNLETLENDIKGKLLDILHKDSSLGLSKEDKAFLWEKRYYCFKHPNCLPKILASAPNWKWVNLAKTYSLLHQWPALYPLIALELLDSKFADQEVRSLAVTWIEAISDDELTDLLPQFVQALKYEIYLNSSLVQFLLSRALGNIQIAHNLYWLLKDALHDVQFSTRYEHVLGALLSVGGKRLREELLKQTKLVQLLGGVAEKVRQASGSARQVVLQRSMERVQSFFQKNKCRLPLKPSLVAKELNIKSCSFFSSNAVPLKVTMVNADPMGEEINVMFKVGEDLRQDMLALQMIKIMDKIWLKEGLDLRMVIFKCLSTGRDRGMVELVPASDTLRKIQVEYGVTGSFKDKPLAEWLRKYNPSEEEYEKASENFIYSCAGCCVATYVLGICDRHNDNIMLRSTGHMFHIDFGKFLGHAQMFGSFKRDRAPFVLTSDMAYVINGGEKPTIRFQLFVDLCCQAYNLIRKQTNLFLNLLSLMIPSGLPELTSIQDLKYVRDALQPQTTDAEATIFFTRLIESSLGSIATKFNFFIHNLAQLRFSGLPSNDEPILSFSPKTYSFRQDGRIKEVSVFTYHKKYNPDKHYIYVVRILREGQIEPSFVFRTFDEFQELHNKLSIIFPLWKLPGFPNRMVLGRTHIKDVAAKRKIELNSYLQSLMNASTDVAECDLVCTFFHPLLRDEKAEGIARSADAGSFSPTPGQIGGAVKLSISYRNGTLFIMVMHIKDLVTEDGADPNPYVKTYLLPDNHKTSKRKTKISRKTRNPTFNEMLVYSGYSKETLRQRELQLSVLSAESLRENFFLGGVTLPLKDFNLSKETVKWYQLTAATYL

Sequence of Dual specificity protein kinase CLK4 (Q9HAZ1 whole entry, looked up): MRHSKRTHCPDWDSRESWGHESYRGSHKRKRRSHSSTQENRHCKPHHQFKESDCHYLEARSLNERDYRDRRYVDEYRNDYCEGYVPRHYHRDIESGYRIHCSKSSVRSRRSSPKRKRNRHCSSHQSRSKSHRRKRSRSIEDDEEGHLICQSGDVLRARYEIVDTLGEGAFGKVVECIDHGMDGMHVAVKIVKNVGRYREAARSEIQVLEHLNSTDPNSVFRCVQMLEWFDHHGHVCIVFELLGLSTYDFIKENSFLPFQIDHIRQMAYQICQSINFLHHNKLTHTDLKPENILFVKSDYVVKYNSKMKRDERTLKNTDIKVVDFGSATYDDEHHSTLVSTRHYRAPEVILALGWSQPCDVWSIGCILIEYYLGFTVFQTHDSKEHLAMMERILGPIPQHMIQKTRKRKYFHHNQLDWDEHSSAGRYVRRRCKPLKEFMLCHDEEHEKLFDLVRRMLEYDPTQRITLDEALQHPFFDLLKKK
Sequence of Serine/threonine-protein kinase 26 (Q9P289 2-416 limits assumed): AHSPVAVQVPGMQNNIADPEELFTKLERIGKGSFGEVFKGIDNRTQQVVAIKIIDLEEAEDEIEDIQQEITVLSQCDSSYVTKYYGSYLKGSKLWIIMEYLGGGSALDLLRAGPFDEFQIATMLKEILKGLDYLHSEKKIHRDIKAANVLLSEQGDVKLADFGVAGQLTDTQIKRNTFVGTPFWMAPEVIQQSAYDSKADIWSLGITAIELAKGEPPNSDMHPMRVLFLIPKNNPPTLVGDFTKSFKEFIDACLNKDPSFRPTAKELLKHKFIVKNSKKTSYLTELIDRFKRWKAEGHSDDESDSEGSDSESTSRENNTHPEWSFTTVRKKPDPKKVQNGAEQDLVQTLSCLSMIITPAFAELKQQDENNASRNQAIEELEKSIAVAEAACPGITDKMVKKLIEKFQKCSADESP
Sequence of N-lysine methyltransferase SMYD2 (Homo sapiens) (Q9NRG4 whole entry, the tested form may be a part): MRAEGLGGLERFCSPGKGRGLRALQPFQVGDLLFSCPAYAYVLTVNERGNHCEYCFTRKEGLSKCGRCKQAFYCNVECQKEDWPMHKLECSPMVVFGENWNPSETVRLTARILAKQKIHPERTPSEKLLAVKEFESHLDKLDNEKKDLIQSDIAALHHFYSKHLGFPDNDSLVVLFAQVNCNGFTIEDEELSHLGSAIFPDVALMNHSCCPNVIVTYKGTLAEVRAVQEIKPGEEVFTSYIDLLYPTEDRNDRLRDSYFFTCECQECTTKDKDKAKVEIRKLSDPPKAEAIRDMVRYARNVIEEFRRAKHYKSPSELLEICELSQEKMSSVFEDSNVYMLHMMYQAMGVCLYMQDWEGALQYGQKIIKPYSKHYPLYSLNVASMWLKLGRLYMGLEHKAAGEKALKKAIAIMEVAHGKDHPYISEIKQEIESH
Sequence of DNA mismatch repair protein Msh6 (Homo sapiens) (P52701 whole entry, the tested form may be a part): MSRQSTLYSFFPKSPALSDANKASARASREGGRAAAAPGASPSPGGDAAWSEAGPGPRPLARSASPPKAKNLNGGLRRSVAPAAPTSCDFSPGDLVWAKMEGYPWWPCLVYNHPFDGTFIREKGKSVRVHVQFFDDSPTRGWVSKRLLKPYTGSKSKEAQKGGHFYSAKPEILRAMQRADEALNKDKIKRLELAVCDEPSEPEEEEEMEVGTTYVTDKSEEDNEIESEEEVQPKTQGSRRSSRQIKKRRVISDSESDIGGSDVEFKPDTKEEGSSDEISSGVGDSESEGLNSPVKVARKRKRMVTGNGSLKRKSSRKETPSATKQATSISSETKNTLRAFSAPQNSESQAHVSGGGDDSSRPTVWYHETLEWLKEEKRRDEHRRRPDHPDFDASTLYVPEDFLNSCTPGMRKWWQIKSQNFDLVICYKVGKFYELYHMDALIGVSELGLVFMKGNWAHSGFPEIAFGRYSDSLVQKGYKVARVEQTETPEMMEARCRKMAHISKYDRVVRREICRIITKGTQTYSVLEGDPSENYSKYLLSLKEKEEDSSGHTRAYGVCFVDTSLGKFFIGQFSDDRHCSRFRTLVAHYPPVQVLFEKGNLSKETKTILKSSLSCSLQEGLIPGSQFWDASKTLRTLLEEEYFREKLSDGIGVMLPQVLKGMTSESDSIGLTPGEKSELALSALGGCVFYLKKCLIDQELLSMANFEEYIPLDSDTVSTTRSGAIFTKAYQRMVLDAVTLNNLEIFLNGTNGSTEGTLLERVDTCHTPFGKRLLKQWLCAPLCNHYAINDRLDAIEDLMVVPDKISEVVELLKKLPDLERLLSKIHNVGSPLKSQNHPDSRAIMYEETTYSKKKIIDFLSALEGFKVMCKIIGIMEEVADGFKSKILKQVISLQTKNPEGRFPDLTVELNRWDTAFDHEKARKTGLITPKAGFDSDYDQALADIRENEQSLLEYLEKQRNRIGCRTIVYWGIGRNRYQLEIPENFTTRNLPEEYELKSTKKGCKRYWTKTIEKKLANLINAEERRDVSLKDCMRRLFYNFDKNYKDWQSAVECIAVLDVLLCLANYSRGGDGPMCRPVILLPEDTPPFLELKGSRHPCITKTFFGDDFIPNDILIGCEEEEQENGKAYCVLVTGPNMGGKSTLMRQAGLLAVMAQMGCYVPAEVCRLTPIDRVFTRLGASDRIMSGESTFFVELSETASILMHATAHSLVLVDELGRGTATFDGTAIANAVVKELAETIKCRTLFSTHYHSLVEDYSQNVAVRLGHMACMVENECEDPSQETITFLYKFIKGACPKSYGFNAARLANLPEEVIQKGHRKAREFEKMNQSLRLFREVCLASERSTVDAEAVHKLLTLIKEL
Sequence of Tyrosine-protein kinase CSK (Homo sapiens) (P41240 2-450 limits assumed): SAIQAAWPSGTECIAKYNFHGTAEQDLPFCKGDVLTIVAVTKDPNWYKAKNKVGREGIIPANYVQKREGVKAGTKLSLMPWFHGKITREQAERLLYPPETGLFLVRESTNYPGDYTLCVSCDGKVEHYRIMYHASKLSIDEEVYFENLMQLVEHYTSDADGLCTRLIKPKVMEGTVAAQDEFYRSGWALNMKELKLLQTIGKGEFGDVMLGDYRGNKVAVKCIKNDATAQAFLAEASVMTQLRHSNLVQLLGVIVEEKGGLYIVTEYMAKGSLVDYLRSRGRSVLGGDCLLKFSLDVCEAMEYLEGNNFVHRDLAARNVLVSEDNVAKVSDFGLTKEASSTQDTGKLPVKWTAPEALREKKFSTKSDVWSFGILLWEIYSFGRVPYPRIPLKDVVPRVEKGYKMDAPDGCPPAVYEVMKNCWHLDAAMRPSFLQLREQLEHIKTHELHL

SMILES: CN(C)C/C=C/C(=O)Nc1ccc(C(=O)N2CCCC(Nc3ncc(Cl)c(-c4c[nH]c5ccccc45)n3)C2)cc1 (configuration not stated)
% of control [1]: 84%

SMILES: CN(C)CCOc1ccc(-c2nc(-c3ccncc3)c(-c3ccc4c(c3)CC/C4=N\O)[nH]2)cc1
% of control [2]: 86%

SMILES: O[C@H]1CC[C@H](Nc2ncc3nc(Nc4c(F)cc(F)cc4F)n([C@H]4CCOC4)c3n2)CC1
% of control [3]: 100%

SMILES: CNC(=O)Nc1ccc(-c2nc(N3CC4CCC(C3)O4)c3cnn(C4CCC5(CC4)OCCO5)c3n2)cc1
% of control [4]: 70%

SMILES: N#Cc1cccc(-c2c[nH]c3ncnc(N4CCOCC4)c23)c1
% of control [5]: 81%

SMILES: COCC(=O)NC/C=C/c1ccc2ncnc(Nc3ccc(Oc4ccc(C)nc4)c(C)c3)c2c1 [CP-724714]
% of control [6]: 88% | % of control [7]: 82% | % of control [8]: 59% | % of control [9]: 100%

% of inhibition [10]: 37%
SMILES: Cc1ccc(-c2ccc3c(ccc4sc5c(c43)NC[C@@H](C)NC5=O)n2)cn1

% activity [11]: > 90%
SMILES: CNCCN1CCC(c2cc(CN(C)C(=O)c3cccc(Oc4ccccc4)c3)ccn2)CC1

dTagg [12]: -0.2 K
SMILES: Cc1cc(CN)cc(C)c1-c1ncn(C)c1-c1cncn1C
dTagg [13]: 0.2 K

SMILES: COc1cc(Nc2nc(C)cc(-c3cnn4nc(OC)ccc34)n2)cc(C(F)(F)F)c1
% of control [14]: 98%

SMILES: O=C(NOC[C@H](O)CO)c1ccc(F)c(F)c1Nc1ccc(I)cc1F
% of control [15]: 75%

SMILES: CCC(=O)N1CCN(c2ccc(-n3c(=O)ccc4cnc5ccc(-c6cnc7ccccc7c6)cc5c43)cc2C(F)(F)F)CC1
% of control [16]: 6.2%

% of inhibition [17]: 5.89%
SMILES: Cn1cc(-n2cnc3c(NCc4nc5cc(Cl)c(Cl)cc5[nH]4)nc(N4CCOCC4)nc32)cn1
